Key:
[1] = Solubility of secondary probes in labeling buffer; assay type: physicochemical; conditions: 0.2 M NH4Ac, pH 5.5, 25 °C
Protocol: However, as we moved to shorter PNA oligomers, solubility saw a substantial, nonlinear increase. […] For example, at 25 °C, the maximum soluble concentration of HP17 (12-mer) was around 6 μM. […]
pH 5.5 at 25°C. Dilution series of HPLC-purified and lyophilized secondary probes (1, 3, 6, 9, 13, 26, 39, 52 and 65 µM) for […]
samples were heated at 95°C for five minutes and concentration of the soluble fraction was determined by UV absorption at 260 nm before (grey bars), and after (black bars) an 18-hour static incubation at 25°C. Duplicates were prepared of all samples and the data is presented as the mean ± SD. The maximum soluble concentration of each probe, indicated in panels A-E as a dotted line, was defined as the highest concentration at which at least 95% is still in the soluble fraction after an 18-hour incubation at 25°C. PNA-aggregates are temperature-labile, as exemplified in panel C for 82 µM HP17.
After an 18-hour incubation 25°C, 6 µM is left in the soluble fraction (left black bar) but heating the sample at 95 °C for five minutes completely redissolved HP17 aggregates into solution (right black bar).
(1 picture or pasted object on this page, not shown here)
Supplementary Material and methods
Solubility of secondary probes
HPLC-purified and freeze-dried secondary probes were resuspended in 10 mM NaAc, pH 3.5-3.6 and freeze-dried in smaller aliquots. The secondary probes were re-dissolved in 0.2 M NH4Ac, pH 5.5, and the samples were heated at 95 °C for five minutes to ensure complete dissolvement. Dilution series of secondary probes (1, 3, 6, 9, 13, 26, 39, 52 and 65 μM) for […]
NH4Ac, pH 5.5. The samples were then left for an 18-hour static incubation at 25 C, before being centrifugated at 21,100 x g for 5 minutes on a standard benchtop centrifuge (Eppendorf). The supernatants were transferred to fresh 1.5 mL Eppendorf-tubes, and the […]

ZHER2-HP15 = conditions: SPR; cited from earlier work
Protocol: Our previously published preclinical therapy studies are based on PNA probes having 15 complementary nucleobases.[26],[27] Upon hybridization, these probes form an exceptionally stable duplex with a melting temperature (Tm) in solution of 86–88 °C. In a Biacore experiment, less than 5% of the hybridized secondary PNA detached during a 17 h long dissociation phase.[20] It is likely that shorter probe pairs than the original 15-mers provide enough binding affinity and specificity to achieve an efficient pretargeted radionuclide therapy in vivo.

In the case of “DOTA-AEEA-SS-aacaccagg-EEY-NH2 [HP16, 9-mer secondary PNA probe with DOTA]”, the “increase in solubility compared to the 15-mer HP18” value [1] is given as about 10 fold, the maximum soluble concentration ([1]; heated 95 °C 5 min, 18-h static incubation, centrifugation, UV 260 nm of supernatant, highest concentration with at least 95% still soluble, duplicates) is given as 26 µM and the Kd (ZHER2-HP15) is given as 0.28 nM. The kd (ZHER2-HP15) was 1.2 × 10^–5 s^–1.

Reference: PMC11091976, “Shorter Peptide Nucleic Acid Probes Improve Affibody-Mediated Peptide Nucleic Acid-Based Pretargeting” (ACS Pharmacology & Translational Science, 2024)
